Patent publication US5763444A, “Antidepressant 1-arylalkyl-4-(alkoxy pyridinyl)-and 4-(alkoxypyrimidinyl) piperazine derivatives” (Bristol-Myers Squibb Company, priority 1996, dated 1998)
Structures can show the parent of a compound that is named as a salt.

Molecular target: T1, synaptosomal serotonin uptake (Rattus norvegicus, UniProt P31652)
T1 construct: from tissue
Test: inhibition of synaptosomal reuptake of tritiated serotonin (5-HT inhibition assay)
Format: biochemical
Design: key: *: Compounds designated with an asterisk are most preferred, based on abilities to inhibit synoptosomal serotonin uptake
Conditions: among compounds with IC50 less than 100 nM
Description: Determination of endogenous monoaminergic re-uptake inhibition values both for serotonin and norepinephrine was accomplished using test methods described by P. Skolnick, et al., Br. J. Pharmacology, (1985), 86, pp. 637-644; with only minor modifications. In vitro IC50 (nM) test values were determined for representative compounds of Formula I based on their inhibition of synaptosomal re-uptake of tritiated serotonin.
Compounds of the invention were tested for their ability to inhibit serotonin reuptake. Determination of endogenous monoaminergic reuptake inhibition values for serotonin was accomplished using test methods described by P. Skolnick et al., Br. J. Pharmacology (1985), 86, pp. 637-644; with only minor modifications.
In vitro IC50 (nM) test values were determined for representative compounds of Formula I based on their inhibition of synaptosomal reuptake of tritiated serotnin.

T1 sequence (P31652 whole entry): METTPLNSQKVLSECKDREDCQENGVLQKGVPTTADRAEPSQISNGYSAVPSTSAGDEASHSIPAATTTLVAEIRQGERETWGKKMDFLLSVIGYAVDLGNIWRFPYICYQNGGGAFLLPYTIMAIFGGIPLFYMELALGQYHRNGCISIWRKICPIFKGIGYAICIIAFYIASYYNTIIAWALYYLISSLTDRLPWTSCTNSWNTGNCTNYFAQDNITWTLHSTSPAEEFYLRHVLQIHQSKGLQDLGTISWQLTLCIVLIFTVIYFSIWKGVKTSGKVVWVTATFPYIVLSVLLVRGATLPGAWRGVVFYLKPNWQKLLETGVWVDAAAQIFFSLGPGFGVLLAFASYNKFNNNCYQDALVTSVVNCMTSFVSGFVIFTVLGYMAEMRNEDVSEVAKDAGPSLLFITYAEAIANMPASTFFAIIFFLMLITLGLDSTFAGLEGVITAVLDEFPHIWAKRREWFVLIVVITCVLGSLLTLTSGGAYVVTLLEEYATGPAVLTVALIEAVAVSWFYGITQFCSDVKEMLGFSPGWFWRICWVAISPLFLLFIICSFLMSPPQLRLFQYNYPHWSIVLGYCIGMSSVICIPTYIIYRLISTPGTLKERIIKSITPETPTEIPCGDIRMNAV

Row | SMILES | asterisk designation: most preferred, based on ability to inhibit synaptosomal serotonin uptake
1 | COc1cccnc1N1CCN(CCC2CSc3ccccc32)C(C)C1.Cl (stereo not shown) [Example 6, 1-[2-(2,3-dihydro-benzo[b]thien-3-yl)ethyl]-4-(3-methoxy-2-pyridinyl)-2-methylpiperazine hydrochloride] | *
2 | COc1cccnc1N1CCN(CCCC2CSc3ccccc32)C(C)C1 (stereo not shown) [Example 7, hydrochloride] | *
3 | COc1cccnc1N1CCN(CCC2CSc3ccccc32)CC1.Cl (stereo not shown) [Example 17, 1-[2-(2,3-dihydro-benzo[b]thien-3-yl)ethyl]-4-(3-methoxy-2-pyridinyl)piperazine hydrochloride] | *
4 | COc1cccnc1N1CCN(CCCc2coc3ccc(F)cc23)CC1.Cl [Example 20, 1-[3-(5-fluorobenzo[b]furan-3-yl)propyl]-4-(3-methoxy-2-pyridinyl)piperazine hydrochloride] | *
5 | COc1cccnc1N1CCN(CCCc2coc3ccc(Cl)cc23)CC1.Cl [Example 25, 1-[3-(5-chlorobenzo[b]furan-3-yl)propyl]-4-(3-methoxy-2-pyridinyl)piperazine hydrochloride] | *
6 | COc1cncnc1N1CCN(CCCc2coc3ccc(Cl)cc23)C(C)C1.Cl (stereo not shown) [Example 27, 1-[3-(5-chlorobenzo[b]furan-3-yl)propyl]-4-(5-methoxy-4-pyrimidinyl)-2-methylpiperazine hydrochloride] | *
7 | COc1cncnc1N1CCN(CCCc2coc3ccccc23)CC1C.Cl (stereo not shown) [Example 28, 1-[3-(benzo[b]furan-3-yl)propyl]-4-(5-methoxy-4-pyrimidinyl)-3-methylpiperazine hydrochloride] | *
8 | COc1cccnc1N1CCN(CCCc2coc3ccc(C)cc23)CC1.Cl [Example 29, 1-[3-(5-methylbenzo[b]furan-3-yl)propyl]-4-(3-methoxy-2-pyridinyl)piperazine hydrochloride] | *
9 | COc1cncnc1N1CCN(CCCc2coc3ccc(C)cc23)C(C)C1.Cl (stereo not shown) [Example 30, 1-[3-(5-methylbenzo[b]furan-3-yl)propyl]-4-(5-methoxy-4-pyrimidinyl)-2-methylpiperazine hydrochloride] | *
10 | COc1cccnc1N1CCN(CCCc2coc3ccccc23)CC1.Cl [Example 31, 1-[3-(benzo[b]furan-3-yl)propyl]-4-(3-methoxy-2-pyridinyl)piperazine hydrochloride] | *
11 | COc1cncnc1N1CCN(CCCc2coc3ccccc23)C(C)C1 (stereo not shown) [Example 32, 1-[3-(benzo[b]furan-3-yl)propyl]-4-(5-methoxy-4-pyrimidinyl-2-methylpiperazine hydrochloride] | *
12 | COc1cccnc1N1CCN(CCc2coc3ccccc23)CC1.Cl [Example 33, 1-[2-(benzo[b]furan-3-yl)ethyl]-4-(3-methoxy-2-pyridinyl)piperazine hydrochloride] | *
13 | COc1cccnc1N1CCN(CCCc2csc3ccccc23)C(C)C1.Cl (stereo not shown) [Example 41, 1-[3-(benzo[b]thien-3-yl)propyl]-4-(3-methoxy-2-pyridinyl)-2-methylpiperazine hydrochloride] | *
14 | COc1cncnc1N1CCN(CCCc2csc3ccccc23)C(C)C1.Cl (stereo not shown) [Example 50, 1-[3-(benzo[b]thien-3-yl)propyl]-4-(5-methoxy-4-pyrimidinyl)-2-methylpiperazine hydrochloride] | *
15 | COc1cncnc1N1CCN(CCCc2csc3ccccc23)CC1C.Cl (stereo not shown) [Example 51, 1-[3-(benzo[b]thien-3-yl)propyl]-4-(5-methoxy-4-pyrimidinyl)-3-methylpiperazine hydrochloride] | *
16 | COc1cncnc1N1CCN(CCCc2csc3ccc(F)cc23)CC1.Cl [Example 52, 1-[3-(5-fluorobenzo[b]thien-3-yl)propyl]-4-(5-methoxy-4-pyrimidinyl)piperazine hydrochloride] | *
17 | COc1cncnc1N1CCN(CCCc2csc3ccc(F)cc23)CC1C.Cl (stereo not shown) [Example 55, 1-[3-(5-fluorobenzo[b]thien-3-yl)propyl]-4-(5-methoxy-4-pyrimidinyl)-3-methylpiperazine hydrochloride] | *
18 | COc1cccnc1N1CCN(CCCc2csc3ccccc23)CC1.O=C(O)/C=C/C(=O)O [Example 56, 1-[3-(benzo[b]thien-3-yl)propyl]-4-(3-methoxy-2-pyridinyl)piperazine fumarate] | *
19 | COc1cccnc1N1CCN(CCc2csc3ccccc23)CC1.Cl [Example 57, 1-[2-(benzo[b]thien-3-yl)ethyl]-4-(3-methoxy-2-pyridinyl)piperazine hydrochloride] | *
20 | COc1cccnc1N1CCN(CCc2csc3ccccc23)C(C)C1.Cl (stereo not shown) [Example 58, 1-[2-(benzo[b]thien-3-yl)ethyl]-4-(3-methoxy-2-pyridinyl)-2-methylpiperazine hydrochloride] | *
21 | COc1cncnc1N1CCN(CCCc2csc3ccccc23)CC1.Cl [Example 59, 1-[3-(benzo[b]thien-3-yl)propyl]-4-(5-methoxy-4-pyrimidinyl)piperazine hydrochloride] | *
22 | COc1cc(Cl)cnc1N1CCN(CCCc2csc3ccccc23)C(C)C1.Cl (stereo not shown) [Example 60, 1-[3-(benzo[b]thien-3-yl)propyl]-4-(5-chloro-3-methoxy-2-pyridinyl)-2-methylpiperazine hydrochloride] | *
23 | COc1cncnc1N1CCN(CCCc2csc3ccc(F)cc23)C(C)C1.Cl (stereo not shown) [Example 63, 1-[3-(5-fluorobenzo[b]thien-3-yl)propyl]-4-(5-methoxy-4-pyrimidinyl)-2-methylpiperazine hydrochloride] | *
24 | COc1cncnc1N1CCN(CCc2csc3ccccc23)CC1C.Cl (stereo not shown) [Example 64, 1-[2-(benzo[b]thien-3-yl)ethyl]-4-(5-methoxy-4-pyrimidinyl)-3-methylpiperazine hydrochloride] | *
25 | COc1cncnc1N1CCN(CCCc2csc3ccc(C#N)cc23)CC1.Cl [Example 65, 1-[3-(5-cyanobenzo[b]thien-3-yl)propyl]-4-(5-methoxy-4-pyrimidinyl)piperazine hydrochloride] | *
